Assays:
benzodiazepine receptor = assay: In vitro activation of benzodiazepine (BZ) binding (flunirazepam, native membrane protein); conditions: average of one or more tests, read-out: SC50 BZ (nanomolar concentration producing a 50% increase in binding)
Description: (§1) The novel compounds of this invention were examined for their in vitro ability to activate GABA and benzodiazepine (BZ) binding. To measure the effect of a compound on GABA binding, Triton X-100 (octylphenoxy polyethoxyethanol, Rohm and Haas Co.) treated membrane protein was incubated in the presence of the compound and [^3 H]GABA as detailed by Horng and Wong, J. Neurochemistry, 32 (5), 1379 (1979). To examine BZ binding, H-flunirazepam and the compounds were incubated with native membrane protein as reported by Wong, et al, Brain Res. Bull., 5 (Suppl. 2), 853 (1980). The results in Table 1 are the nanomolar concentrations of compounds (by Example No.) which produced a 50 percent increase (SC50) in GABA or BZ binding. Each result is the average of one or more tests.

[1] = Metrazole Induced Convulsion Inhibition Assay; format: in vivo, Cox standard strain albino male mice; conditions: Mus musculus; oral gavage, 1 h before metrazole 110 mg./kg. i.p.; active = total score of 6 or less (3 mice, range 0-12); read-out: Minimum active oral dose, Metrazole
Description: (§2) In this assay, a compound to be tested was suspended in acacia (5%) and administered by gavage to each of three Cox standard strain albino male mice (18-24 grams) at the dose level being investigated. One hour after the oral administration, a water solution of metrazole (pentylenetetrazole) was administered by the intraperitoneal route to each mouse at a dose of 110 mg./kg. […] A score of 0 was assigned to a mouse not showing any signs of convulsant activity; a score of 1 was given to mice developing clonic convulsions; a score of 2 was given to mice showing flexor tonic convulsions; a score of 3 was given to mice showing extensor tonic convulsions; and a score of 4 was given to mice that died within the one hour. The scores of the three mice were totalled for each compound and dose level. The scores can range from 0 to 12; a score of 6 or less was interpreted as indicative of an active compound at that dose level. Values reported in Table 2 below are the minimum oral dose levels (mg./kg.) where activity as defined above was observed.

GABA receptor = assay: In vitro activation of GABA binding ([3H]GABA, Triton X-100 treated membrane protein); conditions: average of one or more tests, read-out: SC50 GABA (nanomolar concentration producing a 50% increase in binding)
Description: as §1

[2] = Mouse Writhing Inhibition Assay; format: in vivo, Cox standard strain albino male mice; conditions: oral gavage 60 min before acetic acid 55 mg./kg. i.p., active = less than ten writhes, read-out: Minimum active oral dose, Mouse Writhing
Description: Writhing, which is characterized by contraction of the abdominal musculature, extension of the hindlegs, and rotation of the trunk, was induced in Cox standard strain albino male mice. The mice, weighing 18-24 grams, were fasted overnight and given the test compound by gavage in an acacia suspension (5%) 60 minutes before writhing was induced by the intraperitoneal administration of 55 mg./kg. of acetic acid (0.55 percent). Each treatment group consisted of 3 mice. The total number of writhes for the treatment group was determined during a 5-minute observation starting 5 minutes after acetic acid administration.

[3] = Appetite Suppression Assay; format: in vivo, Cox standard strain albino male mice; conditions: Mus musculus; oral gavage 30 min before feeding; active = weight gain of less than 10% of weight lost on fasting; read-out: Minimum active oral dose, Appetite Suppression
Description: In this test, groups of three Cox standard strain albino male mice were weighed (18-24 grams) and then fasted overnight (16-18 hours). The mice were reweighed and then given the test compound in a suspension of acacia (5%) by gavage. Thirty minutes after oral administration, the mice were allowed to eat freely for one hour. After the eating period, the mice were weighed once more. The percent of weight gained (from the time the mice were given the test compound to after the feeding period) compared to weight lost during the fast period was calculated. The non-drug treated control animals gained back 35-55% of the weight lost on fasting. Any compound at the dose level tested which produced a weight gain of less than 10% was considered to be active. The results in Table 2 report the lowest dose level in which there was activity for each compound tested. Dextroamphetamine sulfate is active in this system at about 2.5 mg./kg.

[4] = Electroshock Induced Convulsion Inhibition Assay; format: in vivo, Cox standard strain albino male mice; conditions: Mus musculus; oral; 0.1 second, 50 milliampere corneal electroshock; active = total score of 6 or less; read-out: Minimum active oral dose, Electro-Shock
Description: as §2
The drug administration and test conditions used in this assay were similar to those used in the metrazole induced convulsion inhibition assay above except that a 0.1 second, 50 milliampere electroshock through corneal electrodes induced the convulsion instead of metrazole. The animals were examined and evaluated immediately after the electroshock and were scored as before. The results in Table 2 are expressed as the lowest dose of each compound tested which was active as previously defined. For comparison, 18 milliamperes was usually sufficient to produce extensor tonic convulsions in about half of the control animals; at 50 milliamperes, almost all control animals died. Diazepam was active at about 1 mg./kg.

Which results are given for Cc1ccc(-c2nnc(N3CCCCC3)nc2-c2ccc(C)cc2)cc1 [Example 20, 5,6-bis(4-methylphenyl)-3-(1-piperidinyl)-1,2,4-triazine]?
EC50 (benzodiazepine receptor): 515 nM; minimal effective dose [1]: 12.5 mg/kg; EC50 (GABA receptor): 5200 nM; minimal effective dose [2]: 12.5 mg/kg; minimal effective dose [3]: 12.5 mg/kg; minimal effective dose [4]: 50 mg/kg

Which results are given for Cc1ccc(-c2nnc(N3CCCCCC3)nc2-c2ccc(C)cc2)cc1 [Example 21, 1-[5,6-bis(4-methylphenyl)-1,2,4-triazin-3-yl]-hexahydro-1H-azepine]?
EC50 (benzodiazepine receptor): 600 nM; minimal effective dose [1]: > 200 mg/kg; EC50 (GABA receptor): 2000 nM; minimal effective dose [2]: > 200 mg/kg; minimal effective dose [3]: > 200 mg/kg; minimal effective dose [4]: > 200 mg/kg

What does the source list for Cc1ccc(-c2nnc(N3CCCC(O)C3)nc2-c2ccc(C)cc2)cc1 (stereo not drawn) [Example 23, 1-[5,6-bis(4-methylphenyl)-1,2,4-triazin-3-yl]-3-piperidinol]?
EC50 (benzodiazepine receptor): 700 nM; minimal effective dose [1]: 50 mg/kg; EC50 (GABA receptor): 400 nM; minimal effective dose [2]: 12.5 mg/kg; minimal effective dose [3]: 12.5 mg/kg; minimal effective dose [4]: 50 mg/kg

For CC(=O)OC1CCCN(c2nnc(-c3ccc(C)cc3)c(-c3ccc(C)cc3)n2)C1 (stereo not drawn) [Example 24, 1-[5,6-bis(4-methylphenyl)-1,2,4-triazine-3-yl]-3-piperidinol, acetate (ester)], which EC50 (benzodiazepine receptor) is on record?
The EC50 was 180 nM.

And the minimal effective dose [1]?
The minimal effective dose was greater than 200 mg/kg.

What about the EC50 (GABA receptor) of the same compound?
Its EC50 is 160 nM.

And the minimal effective dose [2]?
The minimal effective dose was greater than 200 mg/kg.

What about the minimal effective dose [3] of the same compound?
The minimal effective dose was greater than 200 mg/kg.

And the minimal effective dose [4]?
Its minimal effective dose is greater than 200 mg/kg.

With COC1CCN(c2nnc(-c3ccc(C)cc3)c(-c3ccc(C)cc3)n2)CC1 [Example 26, 3-(4-methoxy-1-piperidinyl)-5,6-bis(4-methylphenyl)-1,2,4-triazine] as the compound, how does the EC50 (benzodiazepine receptor) read?
Its EC50 is 90 nM.

And the minimal effective dose [1]?
Its minimal effective dose is 6.2 mg/kg.

And the EC50 (GABA receptor)?
The EC50 was 80 nM.

What about the minimal effective dose [2] of the same compound?
Its minimal effective dose is 6.2 mg/kg.

And the minimal effective dose [3]?
Its minimal effective dose is 6.2 mg/kg.

What about the minimal effective dose [4] of the same compound?
The minimal effective dose was 6.2 mg/kg.

With Cc1ccc(-c2nnc(N3CCC(OC(=O)Oc4ccccc4)CC3)nc2-c2ccc(C)cc2)cc1 [Example 28, carbonic acid, 1-[5,6-bis(4-methylphenyl)-1,2,4-triazin-3-yl]-4-piperidinyl phenyl ester] as the compound, how does the EC50 (benzodiazepine receptor) read?
The EC50 was 650 nM.

And the minimal effective dose [1]?
The minimal effective dose was greater than 200 mg/kg.

What about the EC50 (GABA receptor) of the same compound?
Its EC50 is 160 nM.

And the minimal effective dose [2]?
Its minimal effective dose is greater than 200 mg/kg.

What about the minimal effective dose [3] of the same compound?
The minimal effective dose was greater than 200 mg/kg.

What about the minimal effective dose [4] of the same compound?
The minimal effective dose was greater than 200 mg/kg.

Which EC50 (benzodiazepine receptor) does the source give for Cc1ccc(-c2nnc(N3CCC(OC(N)=O)CC3)nc2-c2ccc(C)cc2)cc1 [Example 29, 1-[5,6-bis(4-methylphenyl)-1,2,4-triazin-3-yl]-4-piperidinol, carbamate (ester)] here?
The EC50 was 15 nM.

And the minimal effective dose [1]?
The minimal effective dose was greater than 6.25 mg/kg.

What about the EC50 (GABA receptor) of the same compound?
The EC50 was 56 nM.

What about the minimal effective dose [2] of the same compound?
Its minimal effective dose is 1.56 mg/kg.

And the minimal effective dose [3]?
The minimal effective dose was 0.4 mg/kg.

And the minimal effective dose [4]?
The minimal effective dose was greater than 6.25 mg/kg.

With Cc1ccc(-c2nnc(N3CCC(OS(C)(=O)=O)CC3)nc2-c2ccc(C)cc2)cc1 [Example 32, 1-[5,6-bis(4-methylphenyl)-1,2,4-triazin-3-yl]-4-piperidinol, methane sulfonate (ester)] as the compound, how does the EC50 (benzodiazepine receptor) read?
The EC50 was 6 nM.

And the minimal effective dose [1]?
The minimal effective dose was greater than 6.25 mg/kg.

And the EC50 (GABA receptor)?
Its EC50 is 68 nM.

What about the minimal effective dose [2] of the same compound?
Its minimal effective dose is 0.4 mg/kg.

And the minimal effective dose [3]?
The minimal effective dose was 0.4 mg/kg.

And the minimal effective dose [4]?
Its minimal effective dose is greater than 6.25 mg/kg.

For Cc1ccc(-c2nnc(N3CCC(OS(=O)(=O)c4ccc(C)cc4)CC3)nc2-c2ccc(C)cc2)cc1 [Example 33, 1-[5,6-bis(4-methylphenyl)-1,2,4-triazin-3-yl]-4-piperidinol, 4-methylbenzene sulfonate (ester)], which EC50 (benzodiazepine receptor) is on record?
Its EC50 is 1200 nM.

What about the minimal effective dose [1] of the same compound?
Its minimal effective dose is greater than 200 mg/kg.

And the EC50 (GABA receptor)?
Its EC50 is 8000 nM.

What about the minimal effective dose [2] of the same compound?
Its minimal effective dose is greater than 200 mg/kg.

And the minimal effective dose [3]?
The minimal effective dose was greater than 200 mg/kg.

And the minimal effective dose [4]?
The minimal effective dose was greater than 200 mg/kg.

With CCOC(=O)C1CCN(c2nnc(-c3ccc(C)cc3)c(-c3ccc(C)cc3)n2)CC1 [Example 35, 1-[5,6-bis(4-methylphenyl)-1,2,4-triazin-3-yl]-4-piperidinecarboxylic acid, ethyl ester] as the compound, how does the EC50 (benzodiazepine receptor) read?
Its EC50 is 18 nM.

What about the minimal effective dose [1] of the same compound?
The minimal effective dose was greater than 200 mg/kg.

And the EC50 (GABA receptor)?
The EC50 was 12 nM.

What about the minimal effective dose [2] of the same compound?
The minimal effective dose was greater than 200 mg/kg.

What about the minimal effective dose [3] of the same compound?
Its minimal effective dose is greater than 200 mg/kg.

What about the minimal effective dose [4] of the same compound?
Its minimal effective dose is greater than 200 mg/kg.

Which results are given for Cc1ccc(-c2nnc(N3CCC4(CC3)OCCO4)nc2-c2ccc(C)cc2)cc1 [Example 38, 8-[5,6-bis(4-methylphenyl)-1,2,4-triazin-3-yl]-1,4-dioxa-8-azaspiro(4.5)decane]?
EC50 (benzodiazepine receptor): 8000 nM; minimal effective dose [1]: > 200 mg/kg; EC50 (GABA receptor): > 10000 nM; minimal effective dose [2]: > 200 mg/kg; minimal effective dose [3]: > 200 mg/kg; minimal effective dose [4]: > 200 mg/kg

Which EC50 (benzodiazepine receptor) does the source give for Cc1ccc(-c2nnc(N3CCC(=O)CC3)nc2-c2ccc(C)cc2)cc1 [Example 39, 1-[5,6-bis(4-methylphenyl)-1,2,4-triazin-3-yl]-4-piperidinone] here?
Its EC50 is 430 nM.

What about the minimal effective dose [1] of the same compound?
The minimal effective dose was 50 mg/kg.

And the EC50 (GABA receptor)?
Its EC50 is 200 nM.

What about the minimal effective dose [2] of the same compound?
The minimal effective dose was 50 mg/kg.

And the minimal effective dose [3]?
Its minimal effective dose is 12.5 mg/kg.

And the minimal effective dose [4]?
The minimal effective dose was 50 mg/kg.

For Cc1ccc(-c2ncc(N3CCC(O)CC3)nc2-c2ccc(C)cc2)cc1 [Example 42, 1-[5,6-bis(4-methylphenyl)pyrazin-2-yl]-4-piperidinol], which EC50 (benzodiazepine receptor) is on record?
The EC50 was 400 nM.

And the minimal effective dose [1]?
Its minimal effective dose is 12.5 mg/kg.

What about the EC50 (GABA receptor) of the same compound?
The EC50 was 1200 nM.

And the minimal effective dose [2]?
Its minimal effective dose is 12.5 mg/kg.

What about the minimal effective dose [3] of the same compound?
Its minimal effective dose is 12.5 mg/kg.

And the minimal effective dose [4]?
Its minimal effective dose is 50 mg/kg.

Which EC50 (benzodiazepine receptor) does the source give for CC(=O)OC1CCN(c2cnc(-c3ccc(C)cc3)c(-c3ccc(C)cc3)n2)CC1 [Example 43, 1-[5,6-bis(4-methylphenyl)pyrazin-2-yl]-4-piperidinol, acetate (ester)] here?
The EC50 was 10 nM.

What about the minimal effective dose [1] of the same compound?
Its minimal effective dose is 25 mg/kg.

And the EC50 (GABA receptor)?
Its EC50 is 7 nM.

What about the minimal effective dose [2] of the same compound?
The minimal effective dose was 100 mg/kg.

And the minimal effective dose [3]?
Its minimal effective dose is 25 mg/kg.

And the minimal effective dose [4]?
Its minimal effective dose is 100 mg/kg.
